Laboratory results reported in patent US20250270173A1, “PYRIDINE DERIVATIVES FOR TREATING PSYCHIATRIC DISORDERS” (GILGAMESH PHARMACEUTICALS, INC., priority 2022, published 2025).
Where two headings read alike, the source gives them in different places.

Key:
[1] = biological target: 5-HT1A receptor (Homo sapiens (Human), UniProt P08908); assay: FLIPR Ca2+ flux functional assay at 5-HT1A (CHO cells); conditions: for 5-HT1A % Act @ Max Conc.: Ca2+ flux, CHO cells, at max concentration
[2] = biological target: T1, 5-HT2A receptor (Homo sapiens (Human), UniProt P28223); assay: 5-HT2A receptor radioligand binding with [3H]ketanserin
[3] = biological target: 5-HT2B receptor (Homo sapiens (Human), UniProt P41595); assay: FLIPR Ca2+ flux functional assay at 5-HT2B (HEK293); conditions: for 5-HT2B % Act @ Max Conc.: Ca2+ flux, HEK293, at max concentration
Chain of 5-HT2B receptor (P41595 whole entry, looked up): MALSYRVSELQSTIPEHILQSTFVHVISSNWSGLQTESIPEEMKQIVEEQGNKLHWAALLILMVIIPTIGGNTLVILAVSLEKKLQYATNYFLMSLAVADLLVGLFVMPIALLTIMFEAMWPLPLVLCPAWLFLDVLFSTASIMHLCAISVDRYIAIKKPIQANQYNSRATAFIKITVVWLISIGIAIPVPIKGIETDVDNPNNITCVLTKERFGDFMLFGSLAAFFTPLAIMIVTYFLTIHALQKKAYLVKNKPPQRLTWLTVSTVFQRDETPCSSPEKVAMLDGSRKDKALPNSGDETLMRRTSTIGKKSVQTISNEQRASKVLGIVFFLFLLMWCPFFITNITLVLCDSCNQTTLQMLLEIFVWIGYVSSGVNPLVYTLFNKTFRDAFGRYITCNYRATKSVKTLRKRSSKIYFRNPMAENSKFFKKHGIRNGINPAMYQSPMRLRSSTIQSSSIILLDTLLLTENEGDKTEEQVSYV

[4] = biological target: T1, 5-HT2A receptor; assay: FLIPR Ca2+ flux functional assay at 5-HT2A (HEK293); conditions: for 5-HT2A % Act @ Max Conc.: Ca2+ flux, HEK293, at max concentration
[5] = read-out: Ki at 5-HT2A Receptor (nM) ([3H]ketanserin), HEK293 stable cell line, 1 nM [3H]ketanserin, 1 h, 25 °C

SMILES	EC50 [1] [µM]	5-HT1A % Act @ Max Conc. [1] [%]	Ki [2, 5] [nM]	EC50 [3] [µM]	5-HT2B % Act @ Max Conc. [3] [%]	EC50 [4] [µM]	5-HT2A % Act @ Max Conc. [4] [%]	Ki [2] [nM]
CCCCCc1cc(OC)c(CC(C)N)nc1OC (stereo not shown) [Compound 4, 1-(3,6-dimethoxy-5-pentylpyridin-2-yl)propan-2-amine]	48.1	67.31	26.2	> 10	14.53	0.0154	132.71	–
COc1cc(Cl)c(OC)nc1CCN [Compound 16, 2-(5-chloro-3,6-dimethoxypyridin-2-yl)ethan-1-amine]	> 100	5.31	264	1.4	38.95	0.0201	97.33	–
COc1cc(Cl)c(OC)nc1CC(C)N (stereo not shown) [Compound 17, 1-(5-chloro-3,6-dimethoxypyridin-2-yl)propan-2-amine]	> 100	0.79	404	0.54	70.03	0.00627	99.4	–
CCc1cc(OC)c(CCN)nc1OC [Compound 19, 2-(5-ethyl-3,6-dimethoxypyridin-2-yl)ethan-1-amine]	12	1.25	111	0.218	20.07	0.0203	96.03	–
CCc1cc(OC)c(CC(C)N)nc1OC (stereo not shown) [Compound 20, 1-(5-ethyl-3,6-dimethoxypyridin-2-yl)propan-2-amine]	> 100	0.9	322	0.293	75.75	0.00579	98.11	–
COc1ccccc1CNCCc1nc(OC)c(Br)cc1OC [Compound 25, 2-(5-bromo-3,6-dimethoxypyridin-2-yl)-N-(2-methoxybenzyl)ethan-1-amine]	> 100	21.35	0.35	> 10	8.22	0.00159	93.57	–
COc1cc(C2CC2)c(OC)nc1CC(C)N (stereo not shown) [Compound 27, 1-(5-cyclopropyl-3,6-dimethoxypyridin-2-yl)propan-2-amine]	> 100	0.49	304	0.246	61.18	0.015	104.13	–
COc1cc(CCCC(F)(F)F)c(OC)nc1CCN [Compound 33, 2-(3,6-dimethoxy-5-(4,4,4-trifluorobutyl)pyridin-2-yl)ethan-1-amine]	> 100	10.46	104	> 10	1.05	0.0457	68.5	–
COc1cc(CCCCCF)c(OC)nc1CCN [Compound 34, 2-(5-(5-fluoropentyl)-3,6-dimethoxypyridin-2-yl)ethan-1-amine]	> 100	4.8	10.2	> 10	7.93	0.0135	64.66	–
COc1cc(CCCCC(F)(F)F)c(OC)nc1CCN [Compound 35, 2-(3,6-dimethoxy-5-(5,5,5-trifluoropentyl)pyridin-2-yl)ethan-1-amine]	> 100	41.47	–	0.341	32.44	0.0385	48.95	13.6
